We go through four compounds from patent US20190062749A1, “SIRNA, PHARMACEUTICAL COMPOSITION AND CONJUGATE WHICH CONTAIN SIRNA, AND USES THEREOF” (priority 2015, published 2019).

d = 2'-deoxy (DNA); m = 2'-O-methyl; r = 2'-OH (RNA); f = 2'-fluoro

The subject of data set [1] is HBsAg. Particulars: 0.1 mg/kg gastric gavage daily for 7 days.
Procedure: The drug dosages for all animals were calculated based on the body weight and the administration volume was 10 ml/kg. The PBS group and each of the RBP131/X2M2 groups were administered with a single dose via tail vein, and the entecavir group was administered by gastric gavage daily for 7 consecutive days, i.e., once a day from day 0 to day 6. Half of the animals was sacrificed in batches at day 7 and day 28, respectively. The expression levels of HBsAg in liver tissue were detected by the detection method as described above.
A short description of data set [2]: Stability of siRNAs in human plasma in vitro (gel, ratio of the longest fragments RL). The data set is classed as in vitro ADME. The settings on record: 50% human plasma. The procedure:
The siRNAs (20 μM, 10 μl) obtained in Preparation Example 1 were incubated with 50% human plasma (HP) at 37° C. in vitro for a certain time and samples were taken therefrom. Specifically, 10 μl samples were taken at 0, 2, 4, 6, 8, 24 and 48 hours respectively and immediately snap frozen in liquid nitrogen, followed by cryopreservation at −80° C. for future use. 20 wt % non-denaturing polyacrylamide gel was formulated, and 10 μl 5-fold diluted above samples (dilution solution: 1×PBS buffer at pH 7.4) and 4 μl loading buffer (20 mM EDTA, 36 wt % glycerol, 0.06 wt % bromophenol blue) were mixed and then loaded into the gel to perform electrophoresis for about 60 minutes under 80 mA constant current. After electrophoresis finished, the gel was stained with 1× Sybr Gold dye (Invitrogen, Cat. 11494) for 15 minutes followed by imaging.
The ratio of the longest fragments remained after incubating the test siRNAs and control siRNAs with human plasma to the longest fragments of the siRNAs without the treatment of human plasma (i.e., the markers shown in FIG. 3) (also referred to as ratio of the longest fragments, RL) is calculated by reading the grayscale values quantitatively.

The subject of data set [3] is HBV gene. The settings on record: prior application CN102140461B; cited from earlier work.
For data set [4] the following is noted: prior application CN102140461B; cited from earlier work.
For data set [5] the following is noted: prior application CN102140461B; cited from earlier work. The source holds these as a separate data set.
Data set [6] has as its system HepG2.2.15 cells. Put plainly: MTT cytotoxicity assay in HepG2.2.15 cells. The class given is cell-based. The settings on record: 500 nM concentration. On the technique in general: Tetrazolium dyes change colour on reduction, which living cells bring about.
Data set [7] concerns rat primary hepatocytes. Put plainly: MTT cytotoxicity assay in rat primary hepatocytes. The settings on record: 500 nM concentration. The data set is classed as cell-based.
For data set [8], the system named is HBV mRNA. Put plainly: Inhibition of HBV mRNA expression in transfected HepG2.2.15 cells (fluorescent qPCR). The class given is cell-based. Particulars: 50 nM, 10 nM and 1 nM siRNA, 48 hours after transfection. The procedure:
HepG2.2.15 cells were purchased from ATCC, cultured with DMEM complete medium (Gibco) containing 10% fetal bovine serum (FBS, Gibco), 2 mM L-glutamine (Gibco) and 380 μg/ml G418 in an incubator containing 5% CO2/95% air at 37° C.
When using the siRNAs against the X gene region of HBV or the non-specific siRNAs as negative controls synthesized in Preparation Example 1 (all of which were synthesized by Suzhou Ribo Life Science Co., Ltd.) to transfect cells, Lipofectamine™ 2000 (Invitrogen) was used as a transfection reagent. The specific procedures thereof may refer to the instruction provided by the manufacturer. […]
The final concentrations of the siRNAs were 50 nM, 10 nM and 1 nM, respectively. The expression levels of HBV mRNA in the above harvested cells were measured by real-time fluorescent qPCR 48 hours after transfection. Specifically, RNeasy Mini Kit (QIAGEN Co., Cat. 74106) was used to extract total RNAs according to the instructions thereof, and the extracted total RNAs were reverse transcribed into cDNAs, and then the inhibitory efficiency of the siRNAs on the expression of HBV mRNA in HepG2.2.15 cells was detected by fluorescent qPCR method. […]
In this fluorescent qPCR method, the inhibitory activity of siRNA was expressed as the remaining expression of HBV gene, and was calculated as follows: […]
(In general: Real-time PCR tracks product formation cycle by cycle.)

Data set [9] has as its system HBsAg. Particulars: 25 ng/g subcutaneously twice a week (day 0, 4, 7, 11, 14), day 7 to 28.
Procedure: The drug dosages for all animals were calculated based on the body weight and the administration volume was 10 ml/kg. […] The blood was taken from mouse orbital venous plexus before administration and at day 7, 14, 21, and 28 after administration, and serum HBsAg levels were measured for each time point.
The volume of the blood taken out from the orbit was about 0.5 ml each time, and the volume of the serum was no less than 200 μl after centrifugation. HBsAg CLIA kit (Autobio, CL0310) was used to detect the expression levels of HBsAg in serum. The remaining expression of HBsAg was calculated as follows:
The remaining expression of HBsAg=(the content of HBsAg in the test group/the content of HBsAg in the PBS control group)×100%, wherein the content of HBsAg was expressed in nanograms of HBsAg per gram of liver tissue proteins.

With `C=C1[C@H](CO)[C@@H](O)C[C@@H]1n1cnc2c(=O)[nH]c(N)nc21` [ETV, entecavir], the “inhibitory effect on the expression of HBsAg in the liver (in words)” value in [1] is recorded as “no inhibitory effect”.

With “CA2: alternating modifications; sense CmCUmUGmAGmGCmAUmACmUUmCAmAAmdTdT, antisense UmUUmGAmAGmUAmUGmCCmUCmAAmGGmdTdT (sense CCUUGAGGCAUACUUCAAATT; antisense UUUGAAGUAUGCCUCAAGGTT; sugars from the 5' end mrmrmrmrmrmrmrmrmrmdd, backbone not given here) [reference compound]”, the “RL (ratio of the longest fragments) 0 h” value in [2] (37° C., 0 h) is listed as 100.0%. The “RL (ratio of the longest fragments) 2 h” value in [2] (37° C., 2 h) turned out to be 86.9%. Further, in data set [2] (37° C., 4 h), the “RL (ratio of the longest fragments) 4 h” value was determined as 76.5%. Further, in data set [2] (37° C., 6 h), the “RL (ratio of the longest fragments) 6 h” value stood at 68.8%. In addition, the “RL (ratio of the longest fragments) 8 h” value in data set [2] (37° C., 8 h) worked out at 67.7%. Besides, the “RL (ratio of the longest fragments) 24 h” value in data set [2] (37° C., 24 h) is 48.7%. Moreover, the “RL (ratio of the longest fragments) 48 h” value in data set [2] (37° C.) amounted to 52.0%. Further, the “plasma stability (in words)” value in [2] (up to 48 h) is on record as “improved but is still not satisfactory”. The “activity at cell level compared to unmodified siRNA CA1” value in data set [3] is “poorer activity at cell level”. In addition, the “cytotoxicity compared to unmodified siRNA CA1” value in data set [4] is “higher cytotoxicity”. Also, the stability in blood result in [5] is “fails to reach a stable state in the blood”.

In the case of “X2M2: siRNA against HBV X gene; sense CmCmUmUmGAGGCmAUmACmUmUmCmAAA-dTdT, antisense UfUmUfGAAGUfAUGCCUfCAAGG-dTdT; covers S++, S−−, S+−, S−+ (sense CCUUGAGGCAUACUUCAAATT; antisense UUUGAAGUAUGCCUCAAGGTT; sense: DNA at T, 2'-O-methyl at CU, RNA at AG, backbone not given here; antisense: sugars from the 5' end fmfrrrrfrrrrrfrrrrrdd, backbone not given here; phosphorothioate variants at dT overhangs exist)”, the “cytotoxicity by MTT assay” value in data set [6] and in [7] was “no cytotoxicity was observed” in each case. Besides, in data set [8], the “inhibitory activity on HBV mRNA expression in HepG2.2.15 cells (FIG. 2, in words)” value is recorded as “excellent activity at cell level”. Moreover, in [2] (37° C.), the “RL (ratio of the longest fragments) 48 h” value is given as not below 90%. Besides, the “band position / full-length state on gel (FIG. 3)” value in data set [2] (up to 48 h) was “maintain a full-length state all the time”. The “plasma stability (in words)” value in data set [2] (up to 48 h) is “more excellent plasma stability than siRNA A4”.

With interferon [IFN], the “inhibitory effect on the expression of HBsAg in serum (in words)” value in data set [9] was “no inhibitory effect”.
